Test in all cases: growth of human tumour cells (NCI), 48 h
For experiment [1], the system named is HCC-2998 colon.
Experiment [2] deals with UACC-62 melanoma.
Experiment [3] deals with SF-539 CNS.
Experiment [4] has as its system CCRF-CEM leukemia.
The subject of experiment [5] is PC-3 prostate.
For experiment [6], the system named is U251 CNS.
The subject of experiment [7] is RXF 393 renal.
Experiment [8] relates to SK-MEL-5 melanoma.
Experiment [9] has as its system NCI-H522 lung.
The subject of experiment [10] is SK-MEL-28 melanoma.

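A five-concentration, 48-hour dose response in 96-well plates underlies each endpoint, interpolated linearly between surrounding concentrations. At the TGI there is no net growth.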

As for `Cn1cccc1-c1ccc(-c2ccc(CO)[se]2)[se]1`, the TGI was greater than 68.4 µM in experiment [1]; greater than 100 µM in experiment [2]; greater than 82.9 µM in experiment [3]; greater than 46.7 µM in experiment [4]; greater than 100 µM in experiment [5]; greater than 100 µM in experiment [6]. Moreover, the TGI in [7] is 43.2 µM; in experiment [8] it was greater than 75 µM; in [9], 50.1 µM; in experiment [10] it was greater than 100 µM.
Take `CCOC(=O)C1CC(C(=O)c2ccccc2)N2c3ccccc3-c3ccccc3C12` (stereo not drawn): the TGI in experiment [1], in [2], in experiment [3], in experiment [4], in experiment [5] and in experiment [6] was greater than 100 µM each time. Besides, the TGI in experiment [7], in [8], in experiment [9] and in experiment [10] was greater than 100 µM each time.
On to `Cc1cc2[nH]c3c(C#N)c(-c4ccccc4)c(N=Nc4ccc(F)cc4)c(=O)n3c2cc1C`, for which the TGI in experiment [1], in experiment [3], in experiment [4], in [5], in experiment [6] and in experiment [7] was greater than 100 µM each time. For the same molecule, the TGI in experiment [8], in experiment [9] and in experiment [10] was greater than 100 µM each time.
Consider `COc1ccc(-n2c(=O)c3[nH]c(=S)[nH]c3n(-c3ccc(OC)cc3)c2=S)cc1`, for which the TGI in experiment [1], in experiment [2], in experiment [3], in experiment [4], in experiment [5] and in experiment [6] was greater than 100 µM each time. Also, the TGI in experiment [7], in experiment [8], in experiment [9] and in experiment [10] was greater than 100 µM throughout.
With `C=C(C(=O)O[C@H]1C/C(C)=C/CC/C(CO)=C/[C@H]2C(=O)OC(=C)[C@H]12)C(O)CO` (stereo partly drawn), the TGI in experiment [1] turned out to be 30.1 µM; in experiment [2], 31.5 µM; in experiment [3], 10.4 µM; in experiment [4], 4.92 µM; in [5] it was 22.2 µM; in [6], 27.1 µM. Besides, the TGI was found to be 25.9 µM in experiment [7], 29.1 µM in experiment [8], 3.3 µM in [9] and 30.8 µM in experiment [10].
As for `CC(C)(C)OC(=O)N/C(C=O)=C\C1CCCCC1`, the TGI in experiment [1] was 37.3 µM; in [2], 30.7 µM; in experiment [3], 87.6 µM; in [4], greater than 100 µM; in [5] it was 47.4 µM; in experiment [6], 40.3 µM. Also, the TGI is 59.7 µM in experiment [7], 31.3 µM in experiment [8], greater than 100 µM in experiment [9] and greater than 100 µM in experiment [10].
As for `CC1=NN(c2cccc(Cl)c2)C2(C1=Cc1ccc(O)cc1)C(Cl)C(=O)N2c1nc2ccccc2s1` (stereo not drawn), the TGI was 35 µM in [1]; greater than 100 µM in [3]; greater than 100 µM in [4]; 51.9 µM in [5]; 49.2 µM in experiment [6]; 47.9 µM in experiment [7]. For the same molecule, the values for the TGI in experiment [8], in [9] and in [10] were 39.8 µM, 49 µM and greater than 100 µM, respectively.
Take `Cc1c(C(=O)c2ccc(N)c3ccccc23)c2ccccc2n1CCN1CCOCC1`: the TGI in experiment [1] was 59.9 µM; in [2], 40.6 µM; in [3], 50.8 µM; in [4], greater than 100 µM; in experiment [5] it was greater than 100 µM; in experiment [6], greater than 95.6 µM. Besides, the TGI is 67.7 µM in experiment [7], 33.7 µM in experiment [8], 58.4 µM in experiment [9] and greater than 100 µM in [10].
On to `COC(=O)c1ccccc1C1CN=NC12Cc1c(ccc3c1CCC3)C2=O` (stereo not drawn), for which the TGI in experiment [1], in experiment [2], in experiment [3], in experiment [4], in experiment [5] and in experiment [6] was greater than 100 µM throughout. In addition, the TGI in [7] is greater than 100 µM; in experiment [8] it was 58.6 µM; in experiment [9], 43.7 µM; in experiment [10] it was greater than 100 µM.
On to `Nc1ccc(-c2nc3ccccc3s2)cc1Cl`, for which the TGI is greater than 100 µM in [1]; greater than 100 µM in experiment [2]; greater than 100 µM in [3]; 98.3 µM in [4]; greater than 100 µM in [5]; greater than 100 µM in experiment [6]. In addition, the TGI in [7] is greater than 94.2 µM; in experiment [8] it was greater than 100 µM; in experiment [9] it was greater than 100 µM; in experiment [10], greater than 100 µM.
Turning to `C[C@]12CC[C@H]3[C@@H](CCC4=CC(=O)C=C[C@@]43OC(=O)C(F)(F)F)[C@@H]1CCC2=O`, the TGI in experiment [1], in experiment [2], in [3], in experiment [4], in experiment [5] and in experiment [6] was greater than 100 µM throughout. Further, the TGI in experiment [7], in experiment [8], in [9] and in experiment [10] was greater than 100 µM in each case.
Take `CC[C@@]1(O)C(=O)OCc2c1cc1n(c2=O)Cc2c-1nc1ccc(O)cc1c2[Si](C)(C)C(C)(C)C`: the TGI in experiment [1] was 0.401 µM; in [2], 0.164 µM; in [3], less than 0.01 µM; in experiment [4] it was less than 0.01 µM; in experiment [5], 2.9 µM; in [6], 0.0192 µM. The TGI came to 0.0378 µM in [7], 0.0387 µM in [8], 0.135 µM in [9] and 10.7 µM in [10].
With `O=c1[nH]nc(-c2ccccc2)n1/N=C/c1ccc([N+](=O)[O-])o1`, the TGI in experiment [1] is 12.4 µM; in [2], 11.2 µM; in [3] it was 15.7 µM; in experiment [4], 19.6 µM; in [5], greater than 30.3 µM; in experiment [6], 18.3 µM. For the same molecule, the TGI is 2.63 µM in experiment [7], 28.9 µM in [8], 6.83 µM in experiment [9] and 10.3 µM in experiment [10].
